Data as given in publication PMC10588032 (Journal of the American Chemical Society, 2023).
*1 amine or outer side, *2 acyl side, *3 side chain or, on linkers, in order; H or OH if unused. Where a SMILES comes first, the peptide text is derived from it. [ ]: non-standard residue; d: D form. X1 = CC(C)C[C@@H](CCC(=O)[*:2])N[*:1]; β3hN = NC(=O)C[C@H](N)CC(=O)O

Columns and labels:
PTHR1 [1] = molecular target: T1, PTHR1 (Homo sapiens, UniProt Q03431); experiment: β-arrestin-2 recruitment to the PTHR1; type: cell-based
T1 sequence (Q03431 27-593): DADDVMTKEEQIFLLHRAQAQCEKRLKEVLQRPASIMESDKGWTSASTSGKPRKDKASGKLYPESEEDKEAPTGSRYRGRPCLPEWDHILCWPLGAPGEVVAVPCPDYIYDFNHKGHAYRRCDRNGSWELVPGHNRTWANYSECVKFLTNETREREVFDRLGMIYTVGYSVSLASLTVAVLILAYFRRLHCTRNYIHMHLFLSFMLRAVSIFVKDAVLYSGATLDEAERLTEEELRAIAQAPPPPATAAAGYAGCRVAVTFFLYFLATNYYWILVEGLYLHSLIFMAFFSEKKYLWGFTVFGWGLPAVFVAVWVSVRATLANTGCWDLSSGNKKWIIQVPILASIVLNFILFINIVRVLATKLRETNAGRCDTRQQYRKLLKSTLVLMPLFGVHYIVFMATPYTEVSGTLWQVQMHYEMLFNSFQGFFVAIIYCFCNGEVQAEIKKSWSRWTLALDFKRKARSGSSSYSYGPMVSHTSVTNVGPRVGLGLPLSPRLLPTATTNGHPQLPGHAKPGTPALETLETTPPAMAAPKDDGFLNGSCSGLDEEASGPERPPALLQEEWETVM

PTHR2 = PTHR2 (Homo sapiens, UniProt P49190); experiment: PTHR2 activation via cAMP production; type: cell-based
Chain of PTHR2 (P49190 25-550, species assumed): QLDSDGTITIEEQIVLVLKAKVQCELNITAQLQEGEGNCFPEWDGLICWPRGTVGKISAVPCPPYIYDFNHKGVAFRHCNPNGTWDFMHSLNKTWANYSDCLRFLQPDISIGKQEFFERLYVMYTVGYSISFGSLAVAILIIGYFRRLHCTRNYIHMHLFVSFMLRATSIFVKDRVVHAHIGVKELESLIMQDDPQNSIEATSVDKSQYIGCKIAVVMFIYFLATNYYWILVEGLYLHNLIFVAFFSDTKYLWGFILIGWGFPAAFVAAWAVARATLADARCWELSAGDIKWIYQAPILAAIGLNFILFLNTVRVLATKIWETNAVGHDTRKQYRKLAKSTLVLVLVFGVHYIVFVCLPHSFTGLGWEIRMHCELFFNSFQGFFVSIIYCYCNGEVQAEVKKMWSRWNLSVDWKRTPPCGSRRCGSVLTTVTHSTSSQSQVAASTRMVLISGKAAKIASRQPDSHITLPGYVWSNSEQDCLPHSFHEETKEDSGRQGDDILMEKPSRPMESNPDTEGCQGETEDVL

PTHR1 [2] = molecular target: T1, PTHR1; experiment: PTHR1 activation via cAMP production; type: cell-based
PTHR1 [3] = molecular target: T1, PTHR1; experiment: β-arrestin-1 recruitment to the PTHR1; type: cell-based
PTHR1 [4] = experiment: PTHR1 cAMP washout assay; type: cell-based; settings: 10 nM agonist for 20 min, then PTHR1 antagonist PTH(7-34) introduced
NLuc-PTHR1 [5] = molecular target: T2, NLuc-PTHR1 (Homo sapiens, UniProt Q03431); experiment: NLuc-PTHR1 competition binding
T2 sequence (Q03431 27-593): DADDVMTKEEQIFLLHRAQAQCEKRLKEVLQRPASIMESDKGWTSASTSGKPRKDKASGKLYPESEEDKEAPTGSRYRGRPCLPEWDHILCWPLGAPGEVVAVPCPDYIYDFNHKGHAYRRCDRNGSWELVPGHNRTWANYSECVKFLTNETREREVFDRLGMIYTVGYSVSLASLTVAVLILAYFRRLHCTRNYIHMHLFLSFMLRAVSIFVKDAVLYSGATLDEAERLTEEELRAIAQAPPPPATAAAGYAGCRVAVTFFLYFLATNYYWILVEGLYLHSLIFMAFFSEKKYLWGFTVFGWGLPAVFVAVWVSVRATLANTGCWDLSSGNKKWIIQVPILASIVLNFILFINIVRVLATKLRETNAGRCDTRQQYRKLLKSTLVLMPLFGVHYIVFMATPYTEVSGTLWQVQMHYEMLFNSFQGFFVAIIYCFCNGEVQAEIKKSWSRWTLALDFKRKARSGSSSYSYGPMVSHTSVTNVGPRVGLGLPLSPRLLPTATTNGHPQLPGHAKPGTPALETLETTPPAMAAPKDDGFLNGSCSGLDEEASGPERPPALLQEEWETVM

NLuc-PTHR1 [6] = molecular target: NLuc-PTHR1 (UniProt Q03431); experiment: FRET or BRET
NLuc-PTHR1 [7] = molecular target: NLuc-PTHR1 (UniProt Q03431)
PTHR1-RLuc8 = molecular target: T3, PTHR1-RLuc8 (UniProt Q03431 27-593); experiment: FRET or BRET
T3 sequence (looked up): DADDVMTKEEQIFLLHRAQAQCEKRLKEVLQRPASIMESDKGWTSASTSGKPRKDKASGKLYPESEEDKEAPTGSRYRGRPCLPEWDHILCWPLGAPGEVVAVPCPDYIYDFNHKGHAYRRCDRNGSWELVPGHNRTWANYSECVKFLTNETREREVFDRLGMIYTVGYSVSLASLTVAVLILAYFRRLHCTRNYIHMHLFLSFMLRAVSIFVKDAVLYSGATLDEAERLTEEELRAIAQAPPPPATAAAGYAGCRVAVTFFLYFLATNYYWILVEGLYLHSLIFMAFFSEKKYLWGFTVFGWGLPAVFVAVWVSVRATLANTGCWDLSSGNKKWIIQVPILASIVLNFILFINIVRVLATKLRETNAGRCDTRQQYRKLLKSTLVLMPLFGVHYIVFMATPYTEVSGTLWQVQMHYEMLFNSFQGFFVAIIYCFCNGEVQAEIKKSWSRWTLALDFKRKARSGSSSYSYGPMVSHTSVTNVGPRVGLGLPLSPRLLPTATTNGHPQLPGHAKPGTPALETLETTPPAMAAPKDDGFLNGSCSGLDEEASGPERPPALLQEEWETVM

**Q.** For `CC[C@H](C)[C@H](NC(=O)[C@H](CCC(=O)O)NC(=O)[C@H](CO)NC(=O)[C@@H](NC(=O)[C@@H](N)CO)C(C)C)C(=O)N[C@@H](CCC(N)=O)C(=O)N[C@@H](CC(C)C)C(=O)N[C@@H](CCSC)C(=O)N[C@@H](Cc1c[nH]cn1)C(=O)N[C@@H](CC(N)=O)CC(=O)N[C@H](CCC(=O)N[C@@H](CCCCN)C(=O)N[C@@H](Cc1c[nH]cn1)C(=O)N[C@@H](CC(C)C)C(=O)N[C@@H](CC(N)=O)C(=O)N[C@@H](CO)C(=O)N[C@@H](CCSC)C(=O)N[C@@H](CCC(=O)O)C(=O)N[C@@H](CCCNC(=N)N)C(=O)N[C@H](C(=O)N[C@@H](CCC(=O)O)C(=O)N[C@@H](Cc1c[nH]c2ccccc12)C(=O)N[C@@H](CC(C)C)C(=O)N[C@@H](CCCNC(=N)N)C(=O)N[C@@H](CCCCN)C(=O)N[C@@H](CCCCN)C(=O)N[C@@H](CC(C)C)C(=O)N[C@@H](CCC(N)=O)C(=O)N[C@@H](CC(=O)O)C(=O)N[C@H](C(=O)N[C@@H](Cc1c[nH]cn1)C(=O)N[C@@H](CC(N)=O)C(=O)N[C@@H](Cc1ccccc1)C(N)=O)C(C)C)C(C)C)CC(C)C` [Peptide 1] (H-SVSEIQLMH[β3hN][X1]KHLNSMERVEWLRKKLQDVHNF-NH2; N-terminus assumed), which EC50 (PTHR1 [1]) is on record?
**A.** 100 nM

**Q.** What about the “PTHR1 β-arrestin-2 Recruitment % Max” value (PTHR1 [1]; normalized against PTH(1-34), ≥3 independent experiments, ± SEM) of the same molecule?
**A.** 21 ± 4%

**Q.** What about the EC50 (PTHR2) of the same molecule?
**A.** 31.6 nM

**Q.** And the “PTHR2 cAMP Production % Max” value (PTHR2; maximal response normalized against PTH(1-34), ≥4 independent experiments, ± SEM)?
**A.** 76 ± 3%

**Q.** And the EC50 (PTHR1 [2])?
**A.** 2.51 nM

**Q.** And the “PTHR1 cAMP Production % Max” value (PTHR1 [2]; maximal response normalized against PTH(1-34), 4 independent experiments, ± SEM)?
**A.** 116 ± 6%

**Q.** And the EC50 (PTHR1 [3])?
**A.** 100 nM

**Q.** What about the “PTHR1 β-arrestin-1 Recruitment % Max” value (PTHR1 [3]; normalized against PTH(1-34), ≥4 independent experiments, ± SEM) of the same molecule?
**A.** 27 ± 3%

**Q.** And the “AUC of post-washout PTHR1 cAMP, lower compared to PTH(1-34)” value (PTHR1 [4])?
**A.** ~ 40%

**Q.** What about the IC50 (NLuc-PTHR1 [5]) of the same molecule?
**A.** 126 nM

**Q.** How did the IC50 (NLuc-PTHR1 [6]) turn out when PTH(1-34) (peptide) was run?
**A.** 22 nM

**Q.** What about the PTHR1 cAMP production, % Max (NLuc-PTHR1 [7]) of the same molecule?
**A.** 102%

B1: β-arrestin-1-Venus (natural protein, UniProt P49407 1-418, looked up)
chain: MGDKGTRVFKKASPNGKLTVYLGKRDFVDHIDLVDPVDGVVLVDPEYLKERRVYVTLTCAFRYGREDLDVLGLTFRKDLFVANVQSFPPAPEDKKPLTRLQERLIKKLGEHAYPFTFEIPPNLPCSVTLQPGPEDTGKACGVDYEVKAFCAENLEEKIHKRNSVRLVIRKVQYAPERPGPQPTAETTRQFLMSDKPLHLEASLDKEIYYHGEPISVNVHVTNNTNKTVKKIKISVRQYADICLFNTAQYKCPVAMEEADDTVAPSSTFCKVYTLTPFLANNREKRGLALDGKLKHEDTNLASSTLLREGANREILGIIVSYKVKVKLVVSRGGLLGDLASSDVAVELPFTLMHPKPKEEPPHREVPENETPVDTNLIELDTNDDDIVFEDFARQRLKGMKDDKEEEEDGTGSPQLNNR
**Q.** Which “EC50 of PTH(1-34) for recruitment” value (PTHR1-RLuc8) does the source give for B1 here?
**A.** 7.2 nM

**Q.** And the “EC50 of peptide 1 for recruitment” value (PTHR1-RLuc8)?
**A.** 100 nM

**Q.** What about the “EC50 of peptide 2 for recruitment” value (PTHR1-RLuc8) of the same molecule?
**A.** 190 nM
